Source: paper PMC11396935, “Exploration of Compounds with 2-Phenylbenzo[d]oxazole Scaffold as Potential Skin-Lightening Agents through Inhibition of Melanin Biosynthesis and Tyrosinase Activity” (Molecules, 2024)
Where two headings read alike, the source gives them in different places.

Assays:
[1] = DPPH radical scavenging assay; settings: 500 μM, 30 min in the dark
Protocol: The DPPH radical scavenging activity was assessed by mixing DPPH solution with compounds 1–15 and incubating them in the dark for 30 min. All test samples were evaluated at 500 μM.
3.14. 2,2′-Diphenyl-1-picrylhydrazyl (DPPH) Radical Scavenging Assay
As previously reported, the ability of compounds 1–15 to remove DPPH radicals was evaluated. A 0.2 mM methanolic DPPH solution was mixed with a 5 mM L-ascorbic acid aqueous solution or 5 mM DMSO solution of 1–15 at a ratio of […] (v/v, 180 μL:20 μL) in each well of a 96-well microplate. After incubating the microplate in the dark for 30 min, the optical density of each well was measured at 517 nm using an ELISA reader. DPPH scavenging activity (%) = (OD[control] − OD[sample]) × 100/OD[control].

[2] = biological target: T1, mushroom tyrosinase (Agaricus bisporus, UniProt C7FF04); assay: Mushroom tyrosinase activity inhibition assay (L-tyrosine or L-dopa as substrate); assay type: biochemical; settings: mushroom tyrosinase, 37 °C, mean ± SEM of triplicates
T1 construct: purchased Sigma-Aldrich (St. Louis, MO, USA)
T1 sequence (C7FF04 1-392 limits assumed): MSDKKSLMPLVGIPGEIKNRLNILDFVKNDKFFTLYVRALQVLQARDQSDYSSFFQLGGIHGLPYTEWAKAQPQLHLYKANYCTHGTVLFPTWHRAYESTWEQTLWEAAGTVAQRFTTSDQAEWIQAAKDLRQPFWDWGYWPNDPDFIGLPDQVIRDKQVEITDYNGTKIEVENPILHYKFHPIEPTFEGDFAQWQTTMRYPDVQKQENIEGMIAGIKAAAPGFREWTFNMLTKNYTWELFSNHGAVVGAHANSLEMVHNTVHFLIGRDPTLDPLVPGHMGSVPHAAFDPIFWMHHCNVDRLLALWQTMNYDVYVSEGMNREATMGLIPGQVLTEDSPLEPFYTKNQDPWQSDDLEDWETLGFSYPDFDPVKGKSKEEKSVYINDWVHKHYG
Protocol: 3.3. Tyrosinase Activity Assay Using Mushroom Tyrosinase
The tyrosinase inhibitory activity of the 2-phenylbenzoxazoles was evaluated using a mushroom tyrosinase activity assay, following a previously described method. An aqueous substrate mixture, consisting of phosphate buffer (pH 6.5; 17.2 mM) and L-tyrosine or L-dopa (345 μM), was prepared. A 96-well plate containing the test sample in dimethyl sulfoxide (DMSO) solution (10 μL), aqueous mushroom tyrosinase solution (20 μL; 200 units), and aqueous substrate mixture (170 μL) in each well was incubated at 37 °C for 15 min for L-dopa and 30 min for L-tyrosine, respectively.

[3] = ABTS radical cation scavenging assay; settings: 100 μM
Protocol: For ABTS^+• scavenging experiments, ABTS^+• was generated by oxidizing ABTS using potassium persulfate. All test samples (Trolox [TR; positive material] and 1–15) were used at a final concentration of 100 μM. […] Both compounds share a common catechol structure. […] Similar results were obtained in the DPPH radical scavenging experiment. […] Compounds 4, 9, and 14, bearing a 4-hydroxy-3-methoxyphenyl, scavenged ABTS^+• moderately (23–51%).
3.15. 2,2′-Azino-bis(3-ethylbenzothiazoline-6-sulfonic Acid) (ABTS) Radical Cation Scavenging Assay
The effect of the 2-phenylbenzoxazole compounds 1–15 on radical scavenging was assessed using an ABTS assay, as previously reported. An ABTS aqueous solution (7 mM) was mixed with a K2S2O8 aqueous solution (2.45 mM) in equal volumes (each 20 mL) and incubated in the dark for 20 h at 25 °C to generate ABTS^+•. The ABTS^+• solution was then diluted with pure EtOH to adjust the absorbance of the solution to 0.7 ± 0.02 at 730 nm. The test samples (1–15 and Trolox [positive control]) were dissolved in a co-solvent of EtOH and DMSO (9:1, v/v) to make a 1 mM solution. The diluted ABTS^+• solution was mixed with the test sample solution at a volume ratio of 9:1 (90 μL:10 μL) and the mixture was stored for 2 min at 20 °C in the dark. The optical density was measured at 730 nm using an ELISA reader at 1 min intervals for 10 min. All test samples were used at a final concentration of 100 µM.
ABTS^+• radical scavenging activity (%) = [(ODcon − ODsam)/ODcon] × 100, where ODsam and ODcon represent the absorbances of the test sample and the control, respectively.

[4] = ROS scavenging assay (SIN-1/DCFH); settings: 40 μM; SIN-1 10 μM; 30 min
Protocol: For ROS scavenging experiments, test samples (1–15 and Trolox [positive control]; 40 μM) containing 3-morpholinosydnonimine (SIN-1; 10 μM) were mixed with a 2′,7′-dichlorodihydrofluorescein (DCFH) solution. After 30 min, the ROS scavenging activity of the test samples was assessed.
3.16. Reactive Oxygen Species (ROS) Scavenging Assay
The ability of compounds 1–15 to remove ROS was assayed as previously reported. […] A 3-morpholinosydnonimine (SIN-1) solution (10 μL, 250 μM) and phosphate buffer (180 μL) were mixed with a test sample (1–15; 10 μL, 1 mM) in DMSO solution or Trolox (10 μL, 1 mM; positive control) in each well of a 96-well black plate and left in the dark 25 °C for 5 min. The SIN-1-test sample mixture was then combined with the generated DCFH solution (50 μL). Fluorescence was measured in 5 min intervals for 30 min at 530 nm using a microplate reader (Berthold Advances GmbH & Co., Bad Wildbad, Germany) with excitation at 485 nm.

[5] = tested on: tyrosinase activity in zebrafish larvae; assay: Tyrosinase activity in zebrafish larvae; assay type: in vivo, zebrafish (Danio rerio); settings: compound 8 0.025 mM; kojic acid 20 mM; treated 28 hpf, read 74 hpf
Protocol: (§1) . Zebrafish embryos obtained by natural mating were dechorionated at 24 hpf and treated with compound 8 (0.025 mM) or kojic acid (20 mM) at 28 hpf. After 46 h, the melanin content and tyrosinase activity were determined.
(§2) 3.13. Measurement of Melanin Content and Tyrosinase Activity in Zebrafish Larvae
(§3) The effects of the 2-phenylbenzo[d]oxazole compound 8 on the melanin content and tyrosinase activity in the zebrafish larvae were assessed using a previously defined procedure with minor modifications. To quantify the melanin content in the zebrafish larvae, zebrafish embryos were obtained through natural mating and operated in a similar manner to the in vivo depigmentation experiment (25 zebrafish embryos per well in a 24-well plate; dechorionation at 24 hpf; test sample treatment (8 [0.025 mM] and kojic acid [20 mM; positive control]) at 28 hpf). Melanin quantification and tyrosinase activity were quantified at 74 hpf. For melanin quantification, the zebrafish larvae were lysed in RIPA buffer (Biosesang, Gyeonggi-do, Korea) and homogenized using a sonicator. […] The absorbance was measured at 405 nm using a microplate reader. For the tyrosinase activity measurement, the supernatants were transferred to new Eppendorf tubes and the protein was quantified using a Pierce BCA protein assay kit, with the absorbance being measured at 570 nm using a microplate reader. […]

[6] = tested on: zebrafish larvae; assay: In vivo depigmentation experiment using zebrafish embryos; settings: kojic acid 20 mM; compound 8 0.025 mM; compound 13 0.025 and 0.05 mM; 76 hpf
Protocol: Zebrafish embryos were used in this study. […] The zebrafish embryos were obtained through natural mating in our laboratory. The chorion of the zebrafish embryos was removed 24 h post-fertilization (hpf).
In Vivo Depigmentation Experiment Using Zebrafish Embryos
A depigmentation experiment was performed using zebrafish embryos, as previously described [38, 49, 50]. Wild-type zebrafish (Danio rerio) were maintained in a fish tank at 28 °C and fed with dried brine shrimp (Artemia salina, San Francisco Bay Brand, San Francisco, CA, USA) three times daily. The zebrafish embryos were obtained through natural mating in mating cages. The obtained zebrafish embryos were transferred to a 90 mm culture dish containing 200 μL of E3-methylene blue (MB) solution, consisting of 0.001% MB, 0.17 mM KCl, 0.33 mM CaCl2, 0.33 mM MgSO4, and 5 mM NaCl, and incubated in an incubator set at 28 °C. At 24 h post-fertilization (hpf), the zebrafish embryos were dechorionated using pronase (Sigma-Aldrich, St. Louis, MO, USA). […] The 48-well plates were incubated in an incubator set at 28 °C for 48 h. At 76 hpf, the zebrafish larvae were mounted on a 1% methylcellulose block after anesthesia with tricaine methanesulfonate (Thermo Fisher Scientific, Waltham, MA, USA), and photographs of the zebrafish larvae were obtained using a SMZ745T stereoscopic microscope (Nikon, Tokyo, Japan). The pigmented areas of the zebrafish larvae were determined using the CS analyzer 3.0 image analysis software (ATTO, Tokyo, Japan).

[7] = tested on: B16F10 tyrosinase in situ; settings: compounds 1, 2, 5 μM; kojic acid 5 μM; α-MSH + IBMX 72 h; excess L-dopa
Protocol: To evaluate the effect of the compounds on in situ tyrosinase activity, an experiment using B16F10 cells was performed as previously described [34, 35]. […] Excess L-dopa was added to increase their melanin production prior to the acquisition of cell images.
In Situ Tyrosinase Activity Assay Using B16F10 Cells and L-dopa
In situ tyrosinase activity was measured in B16F10 cells using L-dopa, as reported previously [34]. […] The cells were processed as follows: (1) fixing with 4% paraformaldehyde for 40 min, (2) washing with PBS, and (3) permeabilizing with 0.1% Triton X-100 for 2 min. After washing with PBS, the cells were stained with L-dopa (2 mM; 500 μL) at 37 °C for 2 h. Stained images were collected using a camera connected to a microscope (Motic, Hong Kong).

[8] = tested on: zebrafish larvae; assay: Melanin content in zebrafish larvae; assay type: in vivo, zebrafish (Danio rerio); settings: compound 8 0.025 mM; kojic acid 20 mM; treated 28 hpf, read 74 hpf
Protocol: as §1, §2, §3

[9] = substrate L-dopa, 15 min, read-out: IC50 Values, L-Dopa
[10] = substrate L-tyrosine, 30 min, read-out: IC50 Values, L-Tyrosine

Row | Compound | IC50 [2, 9] | IC50 [2, 10] | ABTS+• scavenging activity (% inhibition) [3] | further results
1 | O=C1O[C@H]([C@@H](O)CO)C(O)=C1O [L-ascorbic acid, reference compound] |  |  |  | DPPH radical scavenging activity [1]: 96%
2 | Oc1ccc(-c2nc3ccc(Cl)cc3o2)cc1O [Compound 10, 4-(6-Chlorobenzo[d]oxazol-2-yl)benzene-1,2-diol] | > 200 µM | 59 ± 4.74 µM | 81% | DPPH radical scavenging activity [1]: 86%; ROS scavenging activity [4]: strong to moderate ROS-scavenging activity
3 | Oc1ccc(-c2nc3ccc(Cl)cc3o2)cc1 [Compound 6, 4-(6-Chlorobenzo[d]oxazol-2-yl)phenol] | > 200 µM | 57.5 ± 8.78 µM |  | 
4 | Cc1c(C)c2c(c(C)c1O)CCC(C)(C(=O)O)O2 (centres unmarked) [Trolox, reference compound] |  |  | 99% | ROS scavenging activity [4]: most potent ROS scavenging activity
5 | O=c1cc(CO)occ1O [kojic acid, Kojic acid, reference compound] |  |  |  | % tyrosinase activity in zebrafish larvae, vs untreated control (100%) [5]: 57%; depigmentation effect on zebrafish larvae (photographs) [6]: reduced pigmentation in all regions except the eyes; pigmentation area of zebrafish larvae (CS analyzer) [6]: decreased the pigmentation area compared to the control; melanin formation, in situ tyrosinase activity in B16F10 cells [7]: markedly decreased melanin formation; melanin content of zebrafish larvae, vs untreated control (100%) [8]: 53%
6 | COc1ccc(-c2nc3ccc(Cl)cc3o2)c(OC)c1 [Compound 7, 6-Chloro-2-(2,4-dimethoxyphenyl)benzo[d]oxazole] | > 200 µM | > 200 µM | less than 5% | 
7 | Cc1ccc2nc(-c3ccc(O)cc3)oc2c1 [Compound 1, 4-(6-Methylbenzo[d]oxazol-2-yl)phenol] | > 200 µM | 153 ± 14.3 µM |  | 
8 | Cc1ccc2oc(-c3ccc(O)cc3)nc2c1 [Compound 11, 4-(5-Methylbenzo[d]oxazol-2-yl)phenol] | > 200 µM | 76.8 ± 3.84 µM |  | 
9 | COc1ccc(-c2nc3cc(C)ccc3o2)c(OC)c1 [Compound 12, 2-(2,4-Dimethoxyphenyl)-5-methylbenzo[d]oxazole] | > 200 µM | > 200 µM | less than 5% | 

The next lines start with results.

Row | IC50 [2, 9] | IC50 [2, 10] | Compound | ABTS+• scavenging activity (% inhibition) [3] | further results
10 | 187 ± 30.3 µM | 144 ± 3.1 µM | Cc1ccc2nc(-c3ccc(O)c(O)c3)oc2c1 [Compound 5, 4-(6-Methylbenzo[d]oxazol-2-yl)benzene-1,2-diol] | 13% | DPPH radical scavenging activity (in words) [1]: weak DPPH radical scavenging effect; ROS scavenging activity [4]: strong ROS scavenging efficacy
11 | > 200 µM | > 200 µM | COc1ccc(-c2nc3ccc(C)cc3o2)c(OC)c1 [Compound 2, 2-(2,4-Dimethoxyphenyl)-6-methylbenzo[d]oxazole] | less than 5% | 
12 | > 200 µM | 146 ± 16.4 µM | COc1ccc(-c2nc3cc(C)ccc3o2)cc1O [Compound 14, 2-Methoxy-5-(5-methylbenzo[d]oxazol-2-yl)phenol] |  | 
13 | > 200 µM | > 200 µM | COc1ccc(-c2nc3ccc(C)cc3o2)cc1O [Compound 4, 2-Methoxy-5-(6-methylbenzo[d]oxazol-2-yl)phenol] |  | 
14 | > 200 µM | 80.3 ± 5.24 µM | Cc1ccc2oc(-c3ccc(O)c(O)c3)nc2c1 [Compound 15, 4-(5-Methylbenzo[d]oxazol-2-yl)benzene-1,2-diol] | 83% | DPPH radical scavenging activity [1]: 86%; ROS scavenging activity [4]: strong ROS scavenging efficacy comparable to that of Trolox
15 | > 200 µM | > 200 µM | COc1ccc(-c2nc3ccc(Cl)cc3o2)cc1O [Compound 9, 5-(6-Chlorobenzo[d]oxazol-2-yl)-2-methoxyphenol] |  | 
